{
  "source": "patent US20080269339A1",
  "about": "“COMBINED USE OF EGF PATHWAY INHIBITORS AND DIFFERENTIATION PROMOTING COMPOUNDS” (priority 2007, published 2008)",
  "system": "Human keratinocytes",
  "test": "Cornified envelope formation (terminal differentiation) in confluent human keratinocyte culture",
  "assay_type": "cell-based",
  "settings": "for keratinocyte differentiation (percent of cornified envelopes): agent alone vs vehicle control, confluent keratinocytes, 5 days (FIG. 2, FIG. 3)",
  "procedure": "In this study, Keratinocyte Cell Culture-Neonatal foreskin kerinocytes, purchased from Lonza (Walkersville, Md., USA), were grown in keratinocyte-SFM (Gilbro-BRL, Gaithersburg, Md., USA). This complete medium consists of keratinocyte basal medium and supplements (Gibco-BRL), human combinant EGF (5 ng/mL) and bovine pituitary extract (50 μg protein/mL). The calcium concentration in this medium is 0.09 mM.\nUnless indicated in the description for a particular figure set forth below, confluent fifth passage keratinocytes were used, with treatments beginning 2 days after the last addition of complete medium. The media was changed and the cells were pretreated with PD153035 (300 nM) for two hours. Media was again changed to contain PD153035 (300 nM) and epidermal growth factor (10 ng/mL) and left for 24 hours. The media was changed a final time to basal media supplemented with 1 mM CaCl2 and 0.1% bovine serum albumin with the indicated chemical additions. The cells were incubated at 37° C., 5% CO2 for 5 days before the comified envelopes were scored. The vehicle, DMSO, was used as the control for both PD153035 and TCDD.\nIn reference to FIG. 2, Human keratinocytes were grown to confluence and treated with vehicle of media (control), sodium butyrate, epidermal growth factor (EGF) or a combination of EGF and NAB for 5 days. Cornified envelope formation is an endpoint of terminal differentiation. The percent of comified envelopes was calculated by dividing the number of cornified envelopes by the number of cells (times 100).\nIn FIG. 3, Human keratinocytes were grown to confluence and treated with vehicle of dimethylsulfoxide (DMSO), 2,3,7,8-tetrachlorodibenzo-p-dioxin (TCDD), epidermal growth factor (EFG) or a combination of EGF and TCDD for 5 days. Comified envelope formation is an endpoint of terminal cell differentiation. The percent of cornified envelopes was calculated by dividing the number of cornified envelopes by the number of cells (times 100).\nIn FIG. 4, Human keratinocytes were grown to confluence and treated with vehicle of DMSO (−/−), sodium butyrate (NaB) alone (−/+); epidermal growth factor (EGF) alone (+/−) or a combination of EGF and NaB (+/+) with or without PD153035 for 5 days. Comified envelope formation is an endpoint of terminal cell differentiation. The average percent (n=3, +/−std dev) of cornified envelopes was calculated by dividing the number of cornified envelopes by the number of cells (times 100).\nIn FIG. 5, Human keratinocytes were grown to confluence and treated with vehicle of DMSO (−/−), TCDD alone (−/+), epidermal growth factor (EGF) alone (+/−) or a combination of EGF and TCDD (+/+) with or without PD153035 for 5 days. Cornified envelope formation is an endpoint of terminal cell differentiation. The average percent (n=3, +/−std dev) of comified envelopes was calculated by dividing the number of cornified envelopes by the number of cells (times 100).",
  "data": [
    {"compound": "Clc1cc2c(cc1Cl)Oc1cc(Cl)c(Cl)cc1O2", "note": "[TCDD, 2,3,7,8-tetrachlorodibenzo-p-dioxin]", "values": [
      {"measurement": "keratinocyte differentiation (percent of cornified envelopes)", "value": "increases in keratinocyte differentiation"}
    ]},
    {"compound": "EGF: epidermal growth factor, a growth factor supporting the proliferation of epithelial cells", "values": [
      {"measurement": "effect on TCDD increase in keratinocyte differentiation (percent of cornified envelopes)", "setting": "combination of EGF and TCDD, 5 days (FIG. 3)", "value": "inhibited"},
      {"measurement": "effect on sodium butyrate increase in keratinocyte differentiation (percent of cornified envelopes)", "setting": "combination of EGF and sodium butyrate, 5 days (FIG. 2)", "value": "inhibited"}
    ]},
    {"compound": "CCCC(=O)[O-].[Na+]", "note": "[sodium butyrate]", "values": [
      {"measurement": "keratinocyte differentiation (percent of cornified envelopes)", "value": "increases in keratinocyte differentiation"}
    ]},
    {"compound": "COc1cc2ncnc(Nc3cccc(Br)c3)c2cc1OC", "note": "[PD153035]", "values": [
      {"measurement": "effect on sodium butyrate mediated differentiation (percent of cornified envelopes)", "setting": "PD153035 300 nM, in the presence of EGF 10 ng/mL, 5 days, n=3 (FIG. 4)", "value": "increasing sodium butyrate mediated differentiation"},
      {"measurement": "effect on TCDD-mediated differentiation (percent of cornified envelopes)", "setting": "PD153035 300 nM, in the presence of EGF 10 ng/mL, 5 days, n=3 (FIG. 5)", "value": "increasing TCDD-mediated differentiation"}
    ]}
  ]
}
